The record followed here is ChEMBL document CHEMBL4715709, “Synthesis and evaluation of anticonvulsant properties of new N-Mannich bases derived from 3-(1-phenylethyl)- and 3-benzyl-pyrrolidine-2,5-dione” (Bioorg Med Chem Lett, 2016).

The test system of series [1] is Mus musculus. Kind of series: Anticonvulsant activity in mouse assessed as protection against tonic-clonic seizures at 300 mg/kg, ip measured after 0.5 hrs by maximal electroshock seizure test. It is filed as functional, organism-based.
For series [2], the system named is Mus musculus. Kind of series: Anticonvulsant activity in mouse assessed as protection against tonic-clonic seizures at 300 mg/kg, ip measured after 4 hrs by maximal electroshock seizure test. It is filed as functional, organism-based. On the technique in general: In the maximal electroshock model the usual endpoint is tonic extension of the hind limbs.
In series [3] the test system is Mus musculus. Kind of series: Anticonvulsant activity in mouse assessed as protection against ScPTZ-induced epilepsy at 300 mg/kg, ip measured after 0.5 hrs by subcutaneous pentylenetetrazole test. It is filed as functional, organism-based.
For series [4], the system named is Mus musculus. Kind of series: Anticonvulsant activity in mouse assessed as protection against ScPTZ-induced epilepsy at 300 mg/kg, ip measured after 4 hrs by subcutaneous pentylenetetrazole test. It is filed as functional, organism-based.
Series [5] can be described thus: Neurotoxicity in mouse assessed as induction of motor impairment at 300 mg/kg, ip measured after 0.5 hrs by rotarod test. The series is classed as toxicity, organism-based. The following applies: in vivo. Background: In the rotarod test animals must keep their balance on a rotating rod.
Series [6] in a line: Neurotoxicity in mouse assessed as induction of motor impairment at 300 mg/kg, ip measured after 4 hrs by rotarod test. It is filed as toxicity, organism-based. Conditions: in vivo.
Series [7] has as its system Mus musculus. As to the kind of experiment: Anticonvulsant activity in ip dosed mouse assessed as minimum dose required for protection against ScPTZ-induced epilepsy measured after 4 hrs by subcutaneous pentylenetetrazole test. It is filed as functional.
Series [8] can be described thus: Neurotoxicity in ip dosed mouse assessed as minimum dose required for induction of motor impairment measured after 0.5 hrs by rotarod test. The following applies: in vivo. The series is classed as toxicity, organism-based.
Series [9] concerns Mus musculus. Kind of series: Anticonvulsant activity in ip dosed mouse assessed as minimum dose required for protection against ScPTZ-induced epilepsy measured after 0.5 hrs by subcutaneous pentylenetetrazole test. The series is classed as functional.
Series [10] relates to Mus musculus. Kind of series: Anticonvulsant activity in ip dosed mouse assessed as minimum dose required for protection against tonic-clonic seizures measured after 0.5 hrs by maximal electroshock seizure test. It is filed as functional.
Series [11] is described as follows: Neurotoxicity activity in ip dosed mouse assessed as induction of motor impairment by rotarod test. It is filed as toxicity, organism-based. Conditions: in vivo.

Activity calls are given as the source filed them. No cut-off for these calls is given here.

As to `COc1cccc(N2CCN(CN3C(=O)CC(C(C)c4ccccc4)C3=O)CC2)c1` (stereo unspecified), the result in [1], in [2], in [3] and in series [4] was inactive. Also, the Activity result in series [5] and in [6] was “Non-Toxic” each time.
`CC(c1ccccc1)C1CC(=O)N(CN2CCN(c3cccc(Cl)c3Cl)CC2)C1=O` (stereo unspecified): the result in [1], in [2], in [3] and in series [4] was inactive. Besides, the Activity entry in series [5] and in [6] was “Non-Toxic” each time.
Regarding `CC(c1ccccc1)C1CC(=O)N(CN2CCN(c3ccc(Cl)c(Cl)c3)CC2)C1=O` (stereo unspecified), the result in [1], in [2], in series [3] and in [4] was inactive. The Activity result in series [5] and in series [6] was “Non-Toxic” in each case.
Consider `O=C1CC(Cc2ccccc2)C(=O)N1CN1CCC(Cc2ccccc2)CC1` (stereo unspecified), for which the outcome in [1], in [2], in series [3] and in series [4] was inactive. Moreover, the Activity entry in [5] and in [6] was “Non-Toxic” each time.
For the molecule `CC(c1ccccc1)C1CC(=O)N(CN2CCN(c3ccccc3)CC2)C1=O` (stereo unspecified), the result in [1], in series [2], in series [3] and in series [4] was inactive. Also, the Activity entry in [5] and in series [6] was “Non-Toxic” throughout.
Regarding `CC(c1ccccc1)C1CC(=O)N(CN2CCN(c3ccccc3Cl)CC2)C1=O` (stereo unspecified), the outcome in series [1], in [2], in [3] and in series [4] was inactive. The Activity entry in [5] and in series [6] was “Non-Toxic” throughout.
In the case of `O=C1CC(Cc2ccccc2)C(=O)N1CN1CCN(C2CCCCC2)CC1` (stereo unspecified), the outcome in series [1], in series [2], in series [3] and in series [4] was inactive. In addition, the Activity result in [5] and in series [6] was “Non-Toxic” in each case.
Consider `CC(c1ccccc1)C1CC(=O)N(CN2CCN(c3ccccc3F)CC2)C1=O` (stereo unspecified), for which the result in series [1], in series [2], in [3] and in series [4] was inactive. Also, the Activity entry in series [5] and in [6] was “Non-Toxic” throughout.
On to `COc1cccc(N2CCN(CN3C(=O)CC(Cc4ccccc4)C3=O)CC2)c1` (stereo unspecified), for which the outcome in series [1], in series [2], in series [3] and in [4] was inactive. In addition, the Activity entry in [5] and in series [6] was “Non-Toxic” throughout.
With `CC(c1ccccc1)C1CC(=O)N(CN2CCN(c3ccc(F)cc3)CC2)C1=O` (stereo unspecified), the result in series [1], in series [2], in [3] and in series [4] was inactive. For the same molecule, the Activity result in [5] and in [6] was “Non-Toxic” each time.
As for `CC(c1ccccc1)C1CC(=O)N(CN2CCN(Cc3ccccc3)CC2)C1=O` (stereo unspecified), the result in [1], in series [2], in [3] and in series [4] was inactive. In addition, the Activity entry in [5] and in [6] was “Non-Toxic” in each case.
As for `O=C1CC(Cc2ccccc2)C(=O)N1CN1CCN(c2cccc(Cl)c2Cl)CC1` (stereo unspecified), the result in series [1], in series [2], in series [3] and in series [4] was inactive. The Activity entry in series [5] and in [6] was “Non-Toxic” in each case.
Consider `Cc1ccccc1N1CCN(CN2C(=O)CC(C(C)c3ccccc3)C2=O)CC1` (stereo unspecified), for which the result in series [1], in series [2], in series [3] and in series [4] was inactive. For the same molecule, the Activity entry in series [5] and in [6] was “Non-Toxic” throughout.
`Cl.O=C1CC(Cc2ccccc2)C(=O)N1CN1CCN(Cc2ccccc2)CC1` (racemic): in series [7], the “MED=>50” value was 100 mg/kg. The outcome in [1], in series [2] and in series [3] was inactive. Moreover, the Activity entry in series [5] and in [6] was “Non-Toxic” each time.
`Cc1ccccc1N1CCN(CN2C(=O)CC(Cc3ccccc3)C2=O)CC1` (racemic): the result in series [1], in series [2], in series [3] and in series [4] was inactive. Further, the Activity entry in [5] and in [6] was “Non-Toxic” each time.
As to `O=C1CC(Cc2ccccc2)C(=O)N1CN1CCN(c2ccccc2F)CC1` (racemic), in series [7], the “MED=>50” value was 300 mg/kg. The MTD50 in [8] worked out at 300 mg/kg. Also, the outcome in series [1], in series [2] and in series [3] was inactive. In series [6], the Activity entry is reported as “Non-Toxic”.
Consider `CC(c1ccccc1)C1CC(=O)N(CN2CCN(c3ccc(Cl)cc3)CC2)C1=O` (racemic), for which the “MED=>50” value in series [9] and in series [7] was 300 mg/kg throughout. Besides, the result in [1] and in series [2] was inactive. Moreover, the Activity result in series [5] and in series [6] was “Non-Toxic” each time.
`CC(c1ccccc1)C1CC(=O)N(CN2CCN(c3ncccn3)CC2)C1=O` (racemic): the “MED=>50” value in series [7] came out at 300 mg/kg. The MTD50 in series [8] was determined as 300 mg/kg. Further, the result in series [1], in series [2] and in series [3] was inactive. Besides, the Activity entry in series [6] was “Non-Toxic”.
As to `COc1ccccc1N1CCN(CN2C(=O)CC(Cc3ccccc3)C2=O)CC1` (racemic), the “MED=>50” value in [9] turned out to be 100 mg/kg. Moreover, the MTD50 in series [8] was 300 mg/kg. Besides, the result in series [1], in series [2] and in series [4] was inactive. Further, in series [6], the Activity result is recorded as “Non-Toxic”.
With `Cc1cccc(N2CCN(CN3C(=O)CC(Cc4ccccc4)C3=O)CC2)c1` (racemic), the minimum effective dose in series [10] came to 300 mg/kg. For the same molecule, the “MED=>50” value in series [7] turned out to be 100 mg/kg. Besides, in series [8], the MTD50 was determined as 300 mg/kg. Further, the outcome in series [2] and in series [3] was inactive. The Activity result in [6] was “Non-Toxic”.
For the molecule `O=C1CC(Cc2ccccc2)C(=O)N1CN1CCN(c2ccccc2Cl)CC1` (racemic), the “MED=>50” value in series [7] was 100 mg/kg. The outcome in [1], in series [2] and in series [3] was inactive. In addition, the Activity entry in series [5] and in series [6] was “Non-Toxic” in each case.
In the case of `O=C1CC(Cc2ccccc2)C(=O)N1CN1CCN(c2cccc(Cl)c2)CC1` (racemic), the MTD50 in [8] was found to be 300 mg/kg. For the same molecule, the result in series [1], in series [2], in series [3] and in [4] was inactive. Further, the Activity result in series [6] is “Non-Toxic”.
Turning to `O=C1CC(Cc2ccccc2)C(=O)N1CN1CCN(c2ccccc2)CC1` (racemic), the MTD50 in series [8] amounted to 300 mg/kg. For the same molecule, the outcome in [1], in series [2], in series [3] and in series [4] was inactive. The Activity result in [6] was “Non-Toxic”.
With `Cc1cccc(N2CCN(CN3C(=O)CC(C(C)c4ccccc4)C3=O)CC2)c1` (racemic), in series [8], the MTD50 came to 300 mg/kg. The outcome in series [1], in [2], in series [3] and in series [4] was inactive. Also, the Activity result in [6] is reported as “Non-Toxic”.
With `CC(c1ccccc1)C1CC(=O)N(CN2CCN(c3cccc(Cl)c3)CC2)C1=O` (racemic), the MTD50 in [8] worked out at 300 mg/kg. The result in [1], in [2], in series [3] and in series [4] was inactive. Moreover, in [6], the Activity result was “Non-Toxic”.
As a reminder, the TD50 is the 50% point of the dose-response relation for the toxic effect studied. Regarding `CC[C@@H](C(N)=O)N1CCCC1=O` [LEVETIRACETAM], the TD50 in series [11] is over 500 mg/kg.
